# Patent US8221992B2, “Assays for determining compounds which modulate TRAM phosphorylation” (Opsona Therapeutics Limited, priority 2005, dated 2012)
# “Also recorded” adds a separate entry of the source.
# Columns and labels:
# TRAM = test: Immunoblot of PKCε expressing MEF lysates with phospho-specific (Serine 16) TRAM antibody; assay type: cell-based; conditions: stimulation for 30 minutes (LPS 15 and 30 minutes)
# Source text: Fabgennix (Texas, USA), using a synthetic peptide corresponding to amino acids 7 to 21 of TRAM (KIN SCP LSL SWG KRH) with a phosphoserine incorporated instead of the serine at amino acid 16, generated and purified a phospho-specific antibody towards TRAM phosphorylated on Serine 16. The validity of the antibody was confirmed when the band predicted to the phosphorylated TRAM was not present in samples taken from TRAM-deficient MEFs (data not shown).
# The phosphorylation occurred earlier in this cell type than the THP1 cells as the effect was waning by 45 minutes (lane 11) and was not evident at 60 minutes (lane 12). Levels of total TRAM were not altered in the lysates over the time course (FIG. 4c, second panel). Importantly no band was detected in lysates generated from PKCε^−/− MEFs (FIG. 4c, top panel, lane 1-6) and no bands were detected in TRAM-deficient cells attesting to the specificity of the antibody (data not shown). Finally treatment of PKCε expressing MEFs with the TLR2 ligand MALP2 or the TLR3 ligand polyI:C for 30 minutes had no effect (FIG. 4d).
# GST-TRAM = test: Kinase assay: GST-TRAM pulldown with THP1 lysates, [γ32P] ATP; assay type: biochemical; conditions: THP1 cells treated with the stimulus before lysis
# Protocol: Kinase assay: THP1 cells were seeded at 2×10^5 cells/ml in a T175 flask (Sarstedt) and incubated overnight at 37° C. The following day 30 ml of cells were treated with and without LPS in 50 ml falcon tubes (Sarstedt) for 1 hour. The cells were collected by centrifugation, washed once in PBS and lysed in 1 ml buffer (10% glycerol (v/v), 50 mM NaF, 20 mM Tris-Cl pH 8.0, 2 mM EDTA, 137 mM NaCl, 1% NP-40, 1 mM PMSF, 10 μg/ml leupeptin, 1 mM Na3VO4) for 10 minutes. The cell debris was centrifuged for 10 min at 13,000 rpm and the supernatant was removed to a fresh tube for use in the kinase assay. 50 μl of the purified GST-TRAM on the Glutathione beads was placed in an eppendorf tube and the appropriate lysate was added to the tube and incubated for 2 hours at 4° C. The beads were spun down at 2,000 rpm for 5 min and then washed three times in kinase buffer (20 mM HEPES, pH 7.5, 10 mM MgAc, 0.03% Trition, 100 μg/ml phosphotidylserine, 20 mM β-glycerol phosphate, 0.01% (w/v) leupeptin and 100 μM Na3VO4). These beads were then resuspended in 30 μl kinase buffer containing 20 μM cold ATP and 5 μCi [γ^32P] […]
# TRAM is phosphorylated upon LPS stimulation: TRAM is myristoylated, and in resting cells is located in the membrane (unpublished data). […] The samples were then run on a 10% SDS-PAGE gel, transferred onto nitrocellulose and the incorporated radioactivity was measured using X-ray film. […]
Substance,TRAM phosphorylation on serine 16 in PKCε expressing MEFs (TRAM),phosphorylation of GST-TRAM by lysates of stimulated THP1 cells (GST-TRAM)
PolyI:C,had no effect,phosphorylation of TRAM does not occur; also recorded: This phosphorylation did not occur
MALP2,had no effect,
